Measured values published in patent publication US11213516B2, “Intravaginally applicable devices comprising antiviral compounds” (AICURIS ANTI-INFECTIVE CURES GMBH, priority 2017, dated 2022).
Where “and” joins values, the source holds several entries; their conditions need not be identical. Identical values can stand only once. Marks after values point to notes of the source that are not given here.

Assay: Plasma concentration after intravaginal administration of vaginal ring
Assay type: in vivo, Cynomolgus monkeys
Settings: for Plasma concentration of Pritelivir free base: individual animals; for Plasma concentration of Pritelivir free base, Mean: group mean
Experimental: The study was performed in four single dose phases with 28-day sampling period after Phases 1 and 2 (7-day washout period between doses). Vaginal rings were investigated for Pritelivir free base and Pritelivir mesylate salt at two dose levels per formulation. The test items were applied as vaginal ring in Phases 1 and 2 to female monkeys. The study design is below in the Table 3.
Venous blood samples were taken from all animals at the following times in relation to dosing.
• Blood sample site Femoral site • Blood volume 1.0 mL • Anticoagulant For phase 1 samples, Day 1-3 only, blood was sampled into standard HLS vials containing lithium heparin and 20 μL aqueous phosphoric acid (3.5 molar). Thereafter, blood was collected into tubes containing lithium heparin only. Plasma was obtained from all samples by centrifugation. Samples were appropriately labeled and stored deep frozen (−20° C. or below) until analysis • Total no. of blood samples 350 Vaginal Fluid Sampling
After suitable dilution, plasma and vaginal samples were analyzed on UPLC system Waters Acquity UPLC-HSS PFP column with 1.8 μm particles (100×2.1 mm) by gradient elution using 0.1% formic acid and methanol containing 0.1% formic acid. For detection, a time-of-flight mass spectrometer (Xevo GS-2 QTOF, Waters) was used operating in positive ionization mode (MSe analysis). The samples were analyzed for their content of Pritelivir free base.
The study was designed to obtain information on the time-course of unchanged test compound concentrations in plasma and vaginal fluid/tissue, following single intravaginal administration of rings to female Cynomolgus monkeys. Objectives of this study were to determine the safety and tolerance of Pritelivir loaded rings, as well as systemic and local exposure (plasma, vaginal fluid and vaginal and vulval tissue, respectively). Local exposures were compared with in vitro efficacy data of Pritelivir to get an idea on initial pharmacokinetic/pharmacodynamic (PK/PD) parameters for vaginal rings, i.e. to assess the potential ability of a Pritelivir loaded ring to suppress viral replication in the target tissue. Table 9 gives an overview on the EC50 values of Pritelivir on HSV-1 and HSV-2 Data source: Field, H. J., et al., Baseline sensitivity of HSV-1 and HSV-2 clinical isolates and defined acyclovir-resistant strains to the helicase-primase inhibitor pritelivir. Antiviral Res, 2013. 100(2): p. 297-9. EC50=50% effective concentration.

[1] = ring 40 mg free base, Phase 1 Group 1, 0.0833 d
[2] = ring 40 mg free base, Phase 1 Group 1, 2 d
[3] = ring 40 mg free base, Phase 1 Group 1, 3 d
[4] = ring 240 mg free base, Phase 2 Group 1, 2 d
[5] = ring 240 mg free base, Phase 2 Group 1, 3 d
[6] = ring 240 mg free base, Phase 2 Group 1, 4 d
[7] = ring 240 mg free base, Phase 2 Group 1, 7 d
[8] = ring 240 mg free base, Phase 2 Group 1, 10 d
[9] = ring 240 mg free base, Phase 2 Group 1, 14 d
[10] = ring 240 mg free base, Phase 2 Group 1, 17 d
[11] = ring 240 mg free base, Phase 2 Group 1, 21 d
[12] = ring 240 mg free base, Phase 2 Group 1, 24 d
[13] = ring 240 mg free base, Phase 2 Group 1, 28 d

Plasma concentration of Pritelivir free base (ring 40 mg free base, Phase 1 Group 1, 0.0417 d): 4.73 ^ μg/L and 3.11 ^a μg/L
Plasma concentration of Pritelivir free base, Mean [1]: 5.28 ^ μg/L
Plasma concentration of Pritelivir free base [1]: 6.03 ^ μg/L and 4.53 ^ μg/L
Plasma concentration of Pritelivir free base (ring 40 mg free base, Phase 1 Group 1, 0.167 d): 6.90 ^ μg/L and 7.56 ^ μg/L
Plasma concentration of Pritelivir free base, Mean [2]: 10.2 ^ μg/L
Plasma concentration of Pritelivir free base, Mean [3]: 9.20 ^ μg/L
Plasma concentration of Pritelivir free base (ring 40 mg free base, Phase 1 Group 1, 21 d): 3.08 ^a μg/L and 2.67 ^a μg/L
Plasma concentration of Pritelivir free base (ring 40 mg free base, Phase 1 Group 1, 24 d): 2.77 ^a μg/L
Plasma concentration of Pritelivir free base (ring 40 mg free base, Phase 1 Group 1, 28 d): 2.76 ^a μg/L and 3.00 ^a μg/L
Plasma concentration of Pritelivir free base (ring 240 mg free base, Phase 2 Group 1, 0.0417 d): 2.96 ^a μg/L
Plasma concentration of Pritelivir free base (ring 240 mg free base, Phase 2 Group 1, 0.0833 d): 2.95 ^a μg/L
Plasma concentration of Pritelivir free base, Mean [4]: 14.3 ^ μg/L
Plasma concentration of Pritelivir free base [4]: 10.1 ^ μg/L and 23.0 μg/L and 9.89 μg/L
Plasma concentration of Pritelivir free base, Mean [5]: 17.0 ^ μg/L
Plasma concentration of Pritelivir free base, Mean [6]: 17.0 ^ μg/L
Plasma concentration of Pritelivir free base, Mean [7]: 13.1 ^ μg/L
Plasma concentration of Pritelivir free base, Mean [8]: 8.80 ^ μg/L
Plasma concentration of Pritelivir free base, Mean [9]: 8.70 ^ μg/L
Plasma concentration of Pritelivir free base, Mean [10]: 8.67 ^ μg/L
Plasma concentration of Pritelivir free base, Mean [11]: 6.97 ^ μg/L
Plasma concentration of Pritelivir free base, Mean [12]: 8.97 ^ μg/L
Plasma concentration of Pritelivir free base, Mean [13]: 8.79 ^ μg/L
Structure (SMILES): Cc1nc(N(C)C(=O)Cc2ccc(-c3ccccn3)cc2)sc1S(N)(=O)=O [Pritelivir free base]
Plasma concentration of Pritelivir free base (ring 40 mg free base, Phase 1 Group 1, 0.333 d): 8.54 ^ μg/L and 10.9 ^ μg/L and 3.97 ^ μg/L
Plasma concentration of Pritelivir free base [2]: 4.07 ^ μg/L and 11.6 ^ μg/L and 18.3 ^ μg/L and 6.75 ^ μg/L
Plasma concentration of Pritelivir free base [3]: 4.80 ^ μg/L and 7.29 ^ μg/L and 18.4 ^ μg/L and 6.30 ^ μg/L
Plasma concentration of Pritelivir free base (ring 40 mg free base, Phase 1 Group 1, 4 d): 3.41 ^a μg/L and 5.30 ^ μg/L and 3.51 ^a μg/L
Plasma concentration of Pritelivir free base (ring 40 mg free base, Phase 1 Group 1, 7 d): 3.22 ^a μg/L and 3.86 ^a μg/L and 4.00 ^ μg/L
Plasma concentration of Pritelivir free base (ring 40 mg free base, Phase 1 Group 1, 10 d): 3.02 ^a μg/L and 3.74 ^a μg/L and 2.75 ^a μg/L
Plasma concentration of Pritelivir free base (ring 40 mg free base, Phase 1 Group 1, 14 d): 2.83 ^a μg/L and 4.32 ^ μg/L and 3.29 ^a μg/L
Plasma concentration of Pritelivir free base (ring 40 mg free base, Phase 1 Group 1, 17 d): 4.08 ^ μg/L and 3.48 ^a μg/L and 2.59 ^a μg/L
Plasma concentration of Pritelivir free base (ring 240 mg free base, Phase 2 Group 1, 0.167 d): 2.82 ^a μg/L and 8.45 μg/L and 4.56 μg/L and 2.49 ^a μg/L
Plasma concentration of Pritelivir free base (ring 240 mg free base, Phase 2 Group 1, 0.333 d): 3.78 ^a μg/L and 10.1 μg/L and 5.80 μg/L and 3.79 ^a μg/L
Plasma concentration of Pritelivir free base [5]: 15.6 ^ μg/L and 15.2 μg/L and 10.2 ^ μg/L
Plasma concentration of Pritelivir free base [6]: 13.9 ^ μg/L and 16.1 μg/L and 12.2 ^ μg/L
Plasma concentration of Pritelivir free base [7]: 11.8 ^ μg/L and 14.2 μg/L and 10.3 ^ μg/L
Plasma concentration of Pritelivir free base [8]: 8.27 ^ μg/L and 9.04 μg/L and 8.43 ^ μg/L
Plasma concentration of Pritelivir free base [9]: 6.33 ^ μg/L and 8.33 μg/L and 10.6 ^ μg/L
Plasma concentration of Pritelivir free base [10]: 5.58 ^ μg/L and 9.84 μg/L and 8.41 ^ μg/L
Plasma concentration of Pritelivir free base [11]: 6.02 ^ μg/L and 8.37 μg/L and 5.71 ^ μg/L
Plasma concentration of Pritelivir free base [12]: 4.96 ^ μg/L and 11.3 μg/L and 9.86 ^ μg/L
Plasma concentration of Pritelivir free base [13]: 5.57 ^ μg/L and 9.32 μg/L and 7.55 ^ μg/L
